The values below come from publication PMC5640650, “NatD promotes lung cancer progression by preventing histone H4 serine phosphorylation to activate Slug expression” (Nature Communications, 2017).

The test system of data set [1] is H1299 cells. The data set is described as follows: Apoptosis and cell cycle by flow cytometry, H1299 cells. In kind it is cell-based, human. The note with it: vs Scr. The method, then: The in vitro viability of H1299 cells was assessed using the Cell Counting Kit-8 (CCK-8, Dojindo, Japan) according to the manufacturer’s protocol. Flow cytometric analysis of apoptosis was assessed by Annexin V and PI staining using the Annexin V-APC Apoptosis Detection Kit (KeyGEN BioTECH, China) according to the manufacturer’s guide. For cell cycle analysis, cells were harvested and fixed at 4 °C overnight with 70% ethanol. Cells were washed twice with PBS, and their DNA was stained using a Cell Cycle Detection Kit (KeyGEN BioTECH, China). The samples were analyzed by flow cytometry (Becton Dickinson, NJ, USA), and results were analyzed with FlowJo software according to the manufacturer’s instructions. For the wound healing assay, cells were plated to confluence in a 6-well plate, and the cell monolayer was scratched using a pipette tip. Representative photos were taken using a digital camera mounted on an inverted microscope (Olympus) at indicated times. Live cell imaging was performed using the HoloMonitor M4 time-lapse cytometer (Phase Holographic Imaging, Sweden). […]
Supplementary Figure 1. […] (b and c) Representative images from three independent experiments of apoptosis (b) and cell cycle analysis (c) of Scr and NatD-KD H1299 cells analyzed by flow cytometry. […]
In general terms: In flow cytometry, cells or beads pass a laser one at a time.

The subject of data set [2] is A549 cells. The data set is described as follows: Orthotopic implantation in nude mice, A549 cells. The format is in vivo, human. The note with it: pleural cavity, 21 days, n = 6, vs Scr. The method, then:
All animal care and handling procedures were performed in accordance with the National Institutes of Health Guide for the Care and Use of Laboratory Animals, and were approved by the Institutional Review Board of Nanjing University (Nanjing, China). Female SCID mice and C57BL/6 mice (6–8 week old) were purchased from the Model Animal Research Center of Nanjing University (Nanjing, China), and were maintained under specific pathogen-free conditions at Nanjing University. The sample size was chosen with adequate power on the basis of the literature and our previous experience[46] and for each experiment it is indicated in the figure legend. […] Lung nodules and progression were monitored and quantified using the bioluminescence system (Caliper IVIS Lumina XR) or by counting under a dissecting microscope. […] Mice were killed at day 28 or day 30 to collect lungs, and lung nodules in serial sections were quantified microscopically. […] Lung nodules and progression were monitored and quantified using the bioluminescence system (Caliper IVIS Lumina XR). Mice were killed at day 14 or day 21 to collect lungs, and lung nodules in serial sections were quantified microscopically. […]
Supplementary Figure 9. […] (right) Relative BLI signals of lung tumors of corresponding mice (n = 6 for each group) recorded on day 3 and day 21. […]

Take “NatD-KD2: Human NatD shRNA KD2: 5′-GGTTGAATGTCTCCATTGA-3′, lentiviral (shRNA lentiviral)”: the “numbers of apoptotic cells or cell cycle” value in data set [1] is “no difference”. Also, the “migration and invasion, orthotopic model” value in data set [2] is reported as “significantly reduced”.
